The source of these data is patent US11428693B2, “Method of high throughput screening of chemical compounds suppressing nucleolar hypertrophy” (Baylor College of Medicine, priority 2017, dated 2022).

The subject of data set [1] is HCT-15 cells. Put plainly: Cell survival assay using MTT (toxicity study, FIG. 7). The following applies: for toxicity (cell survival, MTT): at the applied concentrations, compounds dissolved in DMSO; for cellular proliferation: prolonged 24-hour treatments.
Procedure: (§1) To further assess protein biosynthesis in the perinuclear area and ribosome biogenesis, several chemical agents were tested on cellular growth and survival.
(§2) All the tested compounds were dissolved in dimethylsulfoxide (DMSO).
(§3) The human colorectal adenocarcinoma cell lines: HCT-15 was purchased from ATCC. Cultures of cells maintained in DMEM/F12 medium containing 10% FBS and antibiotics, at 37° C. with 5% CO2. For cell treatments, cells were grown at 80% confluence in complete medium.
Data set [2] deals with HCT-15 cells. Put plainly: GFP-L7a expression in treated HCT-15 cells (FIG. 8). The format is cell-based, human. From the text: FIG. 8 contains pictures of cells. HCT-15 cells, grown on 35 mm glass bottom dishes, were transfected with the GFP-L7a vector pCMV6-AC-GFP to express GFP-L7a protein.
Data set [3] deals with HCT-15 cells.
Procedure: as §1, §2, §3
The mark [4] stands for this setting: HCT-15 cells transfected with GFP-L7a vector pCMV6-AC-GFP.

Read-outs that look alike come from different tables or passages of the source. Where a SMILES comes first, the peptide text is derived from it. The star is where a group is joined. Cbz = O=C(OCc1ccccc1)*

Turning to `COC1=C2C[C@@H](C)C[C@H](OC)[C@H](O)[C@@H](C)/C=C(\C)[C@H](OC(N)=O)[C@@H](OC)/C=C\C=C(/C)C(=O)NC(=CC1=O)C2=O` [Geldanamycin, (4E,6Z,8S,9S,10E,12S,13R,14S,16R)-13-hydroxy-8,14,19-trimethoxy-4,10,12,16-tetramethyl-3,20,22-trioxo-2-azabicyclo[16.3.1]docosa-1(21),4,6,10,18-pentaen-9-yl carbamate], in data set [1], the “toxicity (cell survival, MTT)” value is “no toxicity” and the cellular proliferation entry is listed as “inhibited cellular proliferation”. In data set [2] (setting [4]), the “nucleolar hypertrophy (GFP-L7a)” value is “induced” and the “perinuclear protein synthesis (GFP-L7a)” value is “induced”.

Take `O=C1Nc2cc(Br)ccc2/C1=C1/Nc2ccccc2/C1=N\O` [Bio, (2′Z,3′E)-6-Bromoindirubin-3′-oxime]: the “toxicity (cell survival, MTT)” value in data set [3] is recorded as “more toxic than the other compounds”. Also, in data set [2] (setting [4]), the “nucleolar hypertrophy (GFP-L7a)” value is reported as “induced” and the “perinuclear protein synthesis (GFP-L7a)” value was “induced”.

Consider `CC(C)n1nc(-c2cc3cc(O)ccc3[nH]2)c2c(N)ncnc21` [pp242, 2-(4-amino-1-isopropyl-1H-pyrazolo[3,4-d]pyrimidin-3-yl)-1H-indol-5-ol], for which the “toxicity (cell survival, MTT)” value in data set [3] was “no toxicity”. In addition, in data set [2], the “perinuclear protein synthesis (GFP-L7a)” value is on record as “induced”.

In the case of `C=C(C)[C@H]1Cc2c(ccc3c2O[C@@H]2COc4cc(OC)c(OC)cc4[C@@H]2C3=O)O1` [Rotenone, (2R,6aS,12a5)-1,2,6,6a,12,12a-hexahydro-2-isopropenyl-8,9-dimethoxychromeno[3,4-b]furo(2,3-h)chromen-6-one], the “toxicity (cell survival, MTT)” value in data set [3] was “no toxicity”. The cellular proliferation entry in data set [1] is reported as “inhibited cellular proliferation”. Moreover, in data set [2] (setting [4]), the “nucleolar hypertrophy (GFP-L7a)” value is on record as “induced” and the “perinuclear protein synthesis (GFP-L7a)” value is on record as “induced”.

On to `CC(C)C[C@@H](C=O)NC(=O)[C@H](CC(C)C)NC(=O)[C@H](CC(C)C)NC(=O)OCc1ccccc1` [MG132, Benzyl N-[(2S)-4-methyl-1-[[(2S)-4-methyl-1-[[(2S)-4-methyl-1-oxopentan-2-yl]amino]-1-oxopentan-2-yl]amino]-1-oxopentan-2-yl]carbamate] (Cbz-Leu-Leu-Leu-aldehyde), for which, in data set [1], the “toxicity (cell survival, MTT)” value was “no toxicity” and the cellular proliferation entry is given as “inhibited cellular proliferation”. Further, in data set [2] (setting [4]), the “nucleolar hypertrophy (GFP-L7a)” value was “induced” and the “perinuclear protein synthesis (GFP-L7a)” value is “induced”.

Regarding `CCc1cncnc1N1CCN(Cc2nc3cc(C(F)(F)F)ccc3[nH]2)CC1` [PF4708671, 2-((4-(5-Ethylpyrimidin-4-yl)piperazin-1-yl)methyl)-5-(trifluoromethyl)-1H-benzo[d]imidazole], in data set [1], the “toxicity (cell survival, MTT)” value was “no toxicity”. Also, in data set [2] (setting [4]), the “nucleolar hypertrophy (GFP-L7a)” value is listed as “induced” and the “perinuclear protein synthesis (GFP-L7a)” value is on record as “induced”.
